Legend:
Format in all cases: in vivo
crabgrass = assay: Test Example 3: weedkilling efficacy through soil treatment; D: crabgrass; settings: soil treatment, treatment dosage 315 g/ha
Description: (§1) Weedkilling Efficacy Test Through Soil Treatment
(§2) Sterilized diluvial soil was introduced into 21 cm long, 13 cm wide, 7 cm deep plastic boxes, and seeds of crabgrass, green foxtail, barnyard grass, wild oat, black-grass, Italian ryegrass, common wind-grass, Indian mallow, redroot pigweed, fig-leafed goosefoot, chickweed, catchweed, birds-eye speedwell, corn, soybean, rice, wheat, beet and rapeseed were each spot-sown, and covered with about 1.5 cm of soil. Next, emulsions of compounds of the present invention prepared according to compounding example 2 were diluted with water to give the specified dosages, and applied uniformly onto the soil surface with a small sprayer. The plants were grown by placing the plastic boxes in a greenhouse at 25 to 30° C., and 3 weeks after the pesticide treatment the effect on each type of plant was investigated on the basis of the assessment criteria of test example 1.
(§3) A: barnyard grass, B: bulrush, C: oval-leafed pondweed, D: crabgrass, E: green foxtail, F: barnyard grass, G: wild oat, H: black-grass, I: Italian ryegrass, J: common wind-grass, K: Indian mallow, L: redroot pigweed, M: fig-leafed goosefoot, N: chickweed, O: catchweed, p: birds-eye speedwell, a: transplanted rice, b: directly sown rice, c: corn, d: soybean, e: wheat, f: beet, g: rapeseed
(§4) Further, pesticide dosage (g/ha) indicates the concentration regulated such that treatment was with only the stated number of grams (g), when calculated per hectare (ha).

Italian ryegrass = assay: Test Example 3: weedkilling efficacy through soil treatment; I: Italian ryegrass; settings: soil treatment, treatment dosage 315 g/ha
Description: as §1, §2, §3, §4

wheat = assay: Test Example 3: soil treatment, effect on crop; e: wheat; settings: soil treatment, treatment dosage 315 g/ha
Description: as §1, §2, §3, §4

green foxtail = assay: Test Example 3: weedkilling efficacy through soil treatment; E: green foxtail; settings: soil treatment, treatment dosage 315 g/ha
Description: as §1, §2, §3, §4

beet = assay: Test Example 3: soil treatment, effect on crop; f: beet; settings: soil treatment, treatment dosage 315 g/ha
Description: as §1, §2, §3, §4

fig-leafed goosefoot = assay: Test Example 3: weedkilling efficacy through soil treatment; M: fig-leafed goosefoot; settings: soil treatment, treatment dosage 315 g/ha
Description: as §1, §2, §3, §4

birds-eye speedwell = assay: Test Example 3: weedkilling efficacy through soil treatment; p: birds-eye speedwell; settings: soil treatment, treatment dosage 315 g/ha
Description: as §1, §2, §3, §4

soybean = assay: Test Example 3: soil treatment, effect on crop; d: soybean; settings: soil treatment, treatment dosage 315 g/ha
Description: as §1, §2, §3, §4

oval-leafed pondweed [1] = assay: Test Example 2: weedkilling efficacy, growth period weed treatment in the submerged state; C: oval-leafed pondweed; settings: treatment dosage 252 g/ha
Outline: (§5)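 First, alluvial soil in pots is flooded to 4 cm and mixed seed is sown. Next, plants grow in a greenhouse at 25 to 30° C until the 1-2 leaf stage. Then diluted emulsion is applied onto the water surface at the given g/ha rate, and injury is assessed after 3 weeks.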

black-grass = assay: Test Example 3: weedkilling efficacy through soil treatment; H: black-grass; settings: soil treatment, treatment dosage 315 g/ha
Description: as §1, §2, §3, §4

transplanted rice = assay: Test Example 1: preemergent weed treatment in the submerged state, effect on crop; a: transplanted rice; settings: treatment dosage 252 g/ha
Outline: (§6)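 Alluvial soil in Wagner pots flooded to 4 cm; barnyard grass, bulrush and oval-leafed pondweed seeds sown, then 2.5-leaf rice seedlings transplanted. Same day, emulsified compound diluted in water to set g/ha dosages and applied to water surface; greenhouse 25–30 °C, effect scored by criteria after 3 weeks.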

Indian mallow = assay: Test Example 3: weedkilling efficacy through soil treatment; K: Indian mallow; settings: soil treatment, treatment dosage 315 g/ha
Description: as §1, §2, §3, §4

oval-leafed pondweed [2] = assay: Test Example 1: weedkilling efficacy, preemergent weed treatment in the submerged state; C: oval-leafed pondweed; settings: treatment dosage 252 g/ha
Outline: as §6

corn = assay: Test Example 3: soil treatment, effect on crop; c: corn; settings: soil treatment, treatment dosage 315 g/ha
Description: as §1, §2, §3, §4

directly sown rice = assay: Test Example 3: soil treatment, effect on crop; b: directly sown rice; settings: soil treatment, treatment dosage 315 g/ha
Description: as §1, §2, §3, §4

chickweed = assay: Test Example 3: weedkilling efficacy through soil treatment; N: chickweed; settings: soil treatment, treatment dosage 315 g/ha
Description: as §1, §2, §3, §4

barnyard grass [3] = assay: Test Example 1: weedkilling efficacy, preemergent weed treatment in the submerged state; A: barnyard grass; settings: treatment dosage 252 g/ha
Outline: as §6

bulrush [4] = assay: Test Example 2: weedkilling efficacy, growth period weed treatment in the submerged state; B: bulrush; settings: treatment dosage 252 g/ha
Outline: as §5

redroot pigweed = assay: Test Example 3: weedkilling efficacy through soil treatment; L: redroot pigweed; settings: soil treatment, treatment dosage 315 g/ha
Description: as §1, §2, §3, §4

bulrush [5] = assay: Test Example 1: weedkilling efficacy, preemergent weed treatment in the submerged state; B: bulrush; settings: treatment dosage 252 g/ha
Outline: as §6

wild oat = assay: Test Example 3: weedkilling efficacy through soil treatment; G: wild oat; settings: soil treatment, treatment dosage 315 g/ha
Description: as §1, §2, §3, §4

barnyard grass [6] = assay: Test Example 2: weedkilling efficacy, growth period weed treatment in the submerged state; A: barnyard grass; settings: treatment dosage 252 g/ha
Outline: as §5

Row | SMILES | D: crabgrass, weedkilling efficacy grade (crabgrass) | I: Italian ryegrass, weedkilling efficacy grade (Italian ryegrass) | e: wheat, effect on crop grade (wheat) | E: green foxtail, weedkilling efficacy grade (green foxtail) | f: beet, effect on crop grade (beet) | M: fig-leafed goosefoot, weedkilling efficacy grade (fig-leafed goosefoot) | P: birds-eye speedwell, weedkilling efficacy grade (birds-eye speedwell) | d: soybean, effect on crop grade (soybean) | C (oval-leafed pondweed) weedkilling efficacy grade (oval-leafed pondweed [1]) | H: black-grass, weedkilling efficacy grade (black-grass) | a: transplanted rice, effect on crop grade (transplanted rice) | K: Indian mallow, weedkilling efficacy grade (Indian mallow) | C: oval-leafed pondweed, weed kill grade (oval-leafed pondweed [2]) | c: corn, effect on crop grade (corn) | b: directly sown rice, effect on crop grade (directly sown rice) | N: chickweed, weedkilling efficacy grade (chickweed) | A: barnyard grass, weed kill grade (barnyard grass [3]) | B (bulrush) weedkilling efficacy grade (bulrush [4]) | L: redroot pigweed, weedkilling efficacy grade (redroot pigweed) | G: wild oat, weedkilling efficacy grade (wild oat) | also measured
1 | Cc1csc(NC(=O)C(C)(C)N2COCN(c3ccccc3)C2=O)n1 [A-1-05] | 5 (weed kill ratio 90% or more, (practically complete withering)) | 5 (weed kill ratio 90% or more, (practically complete withering)) | 0 (weed kill ratio 5% or less (practically no effect)) | 5 (weed kill ratio 90% or more, (practically complete withering)) | 3 (weed kill ratio 40% or more, less than 70%) | 3 (weed kill ratio 40% or more, less than 70%) | 5 (weed kill ratio 90% or more, (practically complete withering)) | 0 (weed kill ratio 5% or less (practically no effect)) | 3 (weed kill ratio 40% or more, less than 70%) | 5 (weed kill ratio 90% or more, (practically complete withering)) | 0 (weed kill ratio 5% or less (practically no effect)) | 4 (weed kill ratio 70% or more, less than 90%) | 5 (weed kill ratio 90% or more, (practically complete withering)) | 1 (weed kill ratio 5% or more, less than 20%) | 5 (weed kill ratio 90% or more, (practically complete withering)) | 4 (weed kill ratio 70% or more, less than 90%) | 5 (weed kill ratio 90% or more, (practically complete withering)) | 5 (weed kill ratio 90% or more, (practically complete withering)) | 5 (weed kill ratio 90% or more, (practically complete withering)) | 4 (weed kill ratio 70% or more, less than 90%) | B: bulrush, weed kill grade (bulrush [5]): 5 (weed kill ratio 90% or more, (practically complete withering)); A (barnyard grass) weedkilling efficacy grade (barnyard grass [6]): 3 (weed kill ratio 40% or more, less than 70%)
2 | CC(C)(C(=O)Nc1cc(Cl)ccn1)N1COCN(c2ccccc2)C1=O [A-2-06] | 5 (weed kill ratio 90% or more, (practically complete withering)) | 5 (weed kill ratio 90% or more, (practically complete withering)) | 1 (weed kill ratio 5% or more, less than 20%) | 5 (weed kill ratio 90% or more, (practically complete withering)) | 4 (weed kill ratio 70% or more, less than 90%) | 4 (weed kill ratio 70% or more, less than 90%) | 5 (weed kill ratio 90% or more, (practically complete withering)) | 3 (weed kill ratio 40% or more, less than 70%) | 5 (weed kill ratio 90% or more, (practically complete withering)) | 5 (weed kill ratio 90% or more, (practically complete withering)) | 4 (weed kill ratio 70% or more, less than 90%) | 4 (weed kill ratio 70% or more, less than 90%) | 5 (weed kill ratio 90% or more, (practically complete withering)) | 3 (weed kill ratio 40% or more, less than 70%) | 5 (weed kill ratio 90% or more, (practically complete withering)) | 4 (weed kill ratio 70% or more, less than 90%) | 5 (weed kill ratio 90% or more, (practically complete withering)) | 5 (weed kill ratio 90% or more, (practically complete withering)) | 5 (weed kill ratio 90% or more, (practically complete withering)) | 5 (weed kill ratio 90% or more, (practically complete withering)) | B: bulrush, weed kill grade (bulrush [5]): 5 (weed kill ratio 90% or more, (practically complete withering)); A (barnyard grass) weedkilling efficacy grade (barnyard grass [6]): 5 (weed kill ratio 90% or more, (practically complete withering))
3 | Cc1cc(NC(=O)C(C)(C)N2COCN(c3ccccc3)C2=O)sn1 [A-1-10] | 4 (weed kill ratio 70% or more, less than 90%) | 4 (weed kill ratio 70% or more, less than 90%) | 0 (weed kill ratio 5% or less (practically no effect)) | 4 (weed kill ratio 70% or more, less than 90%) | 4 (weed kill ratio 70% or more, less than 90%) | 4 (weed kill ratio 70% or more, less than 90%) |  | 0 (weed kill ratio 5% or less (practically no effect)) | 0 (weed kill ratio 5% or less (practically no effect)) | 2 (weed kill ratio 20% or more, less than 40%) | 0 (weed kill ratio 5% or less (practically no effect)) | 3 (weed kill ratio 40% or more, less than 70%) | 3 (weed kill ratio 40% or more, less than 70%) | 0 (weed kill ratio 5% or less (practically no effect)) | 0 (weed kill ratio 5% or less (practically no effect)) | 0 (weed kill ratio 5% or less (practically no effect)) | 3 (weed kill ratio 40% or more, less than 70%) | 5 (weed kill ratio 90% or more, (practically complete withering)) | 4 (weed kill ratio 70% or more, less than 90%) | 0 (weed kill ratio 5% or less (practically no effect)) | B: bulrush, weed kill grade (bulrush [5]): 5 (weed kill ratio 90% or more, (practically complete withering)); A (barnyard grass) weedkilling efficacy grade (barnyard grass [6]): 0 (weed kill ratio 5% or less (practically no effect))
4 | CC(C)(C(=O)Nc1cc(Cl)cc(Cl)n1)N1COCN(c2ccccc2)C1=O [A-2-17, N-(4,6-dichloropyridin-2-yl)-2-methyl-2-(4-oxo-5-phenyl-1,3,5-oxadiazinan-3-yl) propionamide] | 5 (weed kill ratio 90% or more, (practically complete withering)) | 5 (weed kill ratio 90% or more, (practically complete withering)) | 4 (weed kill ratio 70% or more, less than 90%) | 5 (weed kill ratio 90% or more, (practically complete withering)) | 5 (weed kill ratio 90% or more, (practically complete withering)) | 5 (weed kill ratio 90% or more, (practically complete withering)) | 5 (weed kill ratio 90% or more, (practically complete withering)) | 5 (weed kill ratio 90% or more, (practically complete withering)) |  | 5 (weed kill ratio 90% or more, (practically complete withering)) |  | 5 (weed kill ratio 90% or more, (practically complete withering)) |  | 4 (weed kill ratio 70% or more, less than 90%) | 5 (weed kill ratio 90% or more, (practically complete withering)) | 5 (weed kill ratio 90% or more, (practically complete withering)) |  |  | 5 (weed kill ratio 90% or more, (practically complete withering)) | 5 (weed kill ratio 90% or more, (practically complete withering)) | 
